Measurements reported in patent publication US12491159B2, “Controlled release formulations for the induction and proliferation of blood cells” (UNIVERSITY OF PITTSBURGH—OF THE COMMONWEALTH SYSTEM OF …, priority 2012, dated 2025).
No end group written: not given here.

How the values were obtained:
naïve CD4+CD25− cells = experiment: Treg induction from naïve T cells by soluble factors (FoxP3 staining, flow cytometry); assay type: cell-based, mouse
[1] = test system: dendritic cells / FoxP3+ CD4+ T-cells; experiment: VIP bioactivity assay: DC culture and CD4+ T cell chemotaxis; assay type: cell-based, mouse; conditions: LPS
Method: Three separate DC cultures with 24 individual wells were completed in accordance with Example XIII Both GM-CSF and IL-4 were used to culture the cells in the first two DC cell cultures, but for the third DC culture, the IL-4 was omitted to reduce its possible interference in steering immune cells toward a tolerogenic phenotype. Chemotaxis studies of CD4+ T-cells were performed and the percent of FoxP3+ T-cells which flowed through the transwells for each group was evaluated using flow. The data is presented as a normalized percent of FoxP3+ cells which were recruited by the DCs for the first DC when both IL-4 and GM-CSF were used to culture the DC precursors and when GM-CSF was used alone in the last DC culture. […] See, FIG. 15.
When the DC culture was repeated with the absence of IL-4 and addition of 5×GM-CSF, flow cytometry indicated slightly different trends. […]
In the first two experiments, both GM-CSF and IL-4 were added to DC media (modified RPMI 1640) of bone marrow cell cultures during media changes on Days 0, 3 and 6. […] Five different groups of four wells each were analyzed and received treatment. […]
CD4+ T-cells were isolated from the spleen and lymph nodes of a mouse using Dynal® beads following a standard protocol. […] T Cells that flowed through were analyzed for FoxP3+ expression using flow cytometry.

[2] = cited from earlier work

In the case of “TGF-β: recombinant human TGF-β1 (CHO cell-derived, PeproTech), transforming growth factor β1”, the “percent of CD4+ that express FoxP3” value (naïve CD4+CD25− cells; RA 0 ng/ml, TGF-β 0.5 ng/ml (Table 2)) is reported as 8.08%, the “percent of CD4+ that express FoxP3” value (naïve CD4+CD25− cells; RA 0 ng/ml, TGF-β 5 ng/ml (Table 2)) is reported as 28.52% and the “percent of CD4+ that express FoxP3” value (naïve CD4+CD25− cells; RA 0 ng/ml, TGF-β 20 ng/ml (Table 2)) is reported as 27.42%. For the same compound, the “percent of CD4+ that express FoxP3” value (naïve CD4+CD25− cells; Rapa 0 ng/ml, TGF-β 0.1 ng/ml (Table 1)) was 0.61%, the “percent of CD4+ that express FoxP3” value (naïve CD4+CD25− cells; Rapa 0 ng/ml, TGF-β 1 ng/ml (Table 1)) was 2.82% and the “percent of CD4+ that express FoxP3” value (naïve CD4+CD25− cells; Rapa 0 ng/ml, TGF-β 5 ng/ml (Table 1)) was 18.16%. The “percent of CD4+ that express FoxP3” value (naïve CD4+CD25− cells; Rapa 0 ng/ml, TGF-β 20 ng/ml (Table 1)) was 53.26%.

With “VIP: Vasoactive intestinal peptide, a 28-amino acid neuropeptide (HSDAVFTDNYTRLRKQMAVKKYLNSILN; ends and bridges not checked; UniProt P01282 125-152, looked up)” the “percentage of FoxP3+ cells recruited by treated DCs” value ([1]; DC precursors cultured with IL-4 and GM-CSF, versus LPS only or blank particle releasates) was “recruited a higher percentage of FoxP3+ cells” and the “percentage of FoxP3+ cells recruited by treated DCs” value ([1]; no IL-4, 5×GM-CSF, relative to LPS alone) was “recruited the same percentage of FoxP3+ cells”.

With `CO[C@H]1C[C@@H]2CC[C@@H](C)[C@@](O)(O2)C(=O)C(=O)N2CCCC[C@H]2C(=O)O[C@H]([C@H](C)C[C@@H]2CC[C@@H](O)[C@H](OC)C2)CC(=O)[C@H](C)/C=C(\C)[C@@H](O)[C@@H](OC)C(=O)[C@H](C)C[C@H](C)/C=C/C=C/C=C/1C` [Rapa, rapamycin] the “percent of CD4+ that express FoxP3” value (naïve CD4+CD25− cells; Rapa 1 ng/ml, TGF-β 0 ng/ml) was 1.91%, the “percent of CD4+ that express FoxP3” value (naïve CD4+CD25− cells; Rapa 1 ng/ml, TGF-β 0.1 ng/ml) was 3.04% and the “percent of CD4+ that express FoxP3” value (naïve CD4+CD25− cells; Rapa 1 ng/ml, TGF-β 1 ng/ml) was 8.89%. The “percent of CD4+ that express FoxP3” value (naïve CD4+CD25− cells; Rapa 1 ng/ml, TGF-β 5 ng/ml) was 34.41%, the “percent of CD4+ that express FoxP3” value (naïve CD4+CD25− cells; Rapa 1 ng/ml, TGF-β 20 ng/ml) was 76.22% and the “percent of CD4+ that express FoxP3” value (naïve CD4+CD25− cells; Rapa 10 ng/ml, TGF-β 0 ng/ml) was 3.45%. The “percent of CD4+ that express FoxP3” value (naïve CD4+CD25− cells; Rapa 10 ng/ml, TGF-β 0.1 ng/ml) was 5.31%, the “percent of CD4+ that express FoxP3” value (naïve CD4+CD25− cells; Rapa 10 ng/ml, TGF-β 1 ng/ml) was 14.48% and the “percent of CD4+ that express FoxP3” value (naïve CD4+CD25− cells; Rapa 10 ng/ml, TGF-β 5 ng/ml) was 51.08%. For the same compound, the “percent of CD4+ that express FoxP3” value (naïve CD4+CD25− cells; Rapa 10 ng/ml, TGF-β 20 ng/ml) was 78.27%, the “percent of CD4+ that express FoxP3” value (naïve CD4+CD25− cells; Rapa 100 ng/ml, TGF-β 0 ng/ml) was 4.13% and the “percent of CD4+ that express FoxP3” value (naïve CD4+CD25− cells; Rapa 100 ng/ml, TGF-β 0.1 ng/ml) was 7.8%. For the same compound, the “percent of CD4+ that express FoxP3” value (naïve CD4+CD25− cells; Rapa 100 ng/ml, TGF-β 1 ng/ml) was 22.05%, the “percent of CD4+ that express FoxP3” value (naïve CD4+CD25− cells; Rapa 100 ng/ml, TGF-β 5 ng/ml) was 54.19% and the “percent of CD4+ that express FoxP3” value (naïve CD4+CD25− cells; Rapa 100 ng/ml, TGF-β 20 ng/ml) was 80.36%.

For `CC1=C(/C=C/C(C)=C/C=C/C(C)=C/C(=O)O)C(C)(C)CCC1` [RA, all-trans retinoic acid], the “percent of CD4+ that express FoxP3” value (naïve CD4+CD25− cells; RA 0.1 ng/ml, TGF-β 0 ng/ml) was 2.71%, the “percent of CD4+ that express FoxP3” value (naïve CD4+CD25− cells; RA 0.1 ng/ml, TGF-β 0.5 ng/ml) was 11.98% and the “percent of CD4+ that express FoxP3” value (naïve CD4+CD25− cells; RA 0.1 ng/ml, TGF-β 5 ng/ml) was 35.18%. For the same compound, the “percent of CD4+ that express FoxP3” value (naïve CD4+CD25− cells; RA 0.1 ng/ml, TGF-β 20 ng/ml) was 28.33%, the “percent of CD4+ that express FoxP3” value (naïve CD4+CD25− cells; RA 1 ng/ml, TGF-β 0 ng/ml) was 2.64% and the “percent of CD4+ that express FoxP3” value (naïve CD4+CD25− cells; RA 1 ng/ml, TGF-β 0.5 ng/ml) was 10.5%. For the same compound, the “percent of CD4+ that express FoxP3” value (naïve CD4+CD25− cells; RA 1 ng/ml, TGF-β 5 ng/ml) was 44.71%, the “percent of CD4+ that express FoxP3” value (naïve CD4+CD25− cells; RA 1 ng/ml, TGF-β 20 ng/ml) was 42.25% and the “percent of CD4+ that express FoxP3” value (naïve CD4+CD25− cells; RA 10 ng/ml, TGF-β 0 ng/ml) was 2.27%. For the same compound, the “percent of CD4+ that express FoxP3” value (naïve CD4+CD25− cells; RA 10 ng/ml, TGF-β 0.5 ng/ml) was 9.36%, the “percent of CD4+ that express FoxP3” value (naïve CD4+CD25− cells; RA 10 ng/ml, TGF-β 5 ng/ml) was 42.22% and the “percent of CD4+ that express FoxP3” value (naïve CD4+CD25− cells; RA 10 ng/ml, TGF-β 20 ng/ml) was 45.97%. For the same compound, the “percent of CD4+ that express FoxP3” value (naïve CD4+CD25− cells; RA 100 ng/ml, TGF-β 0 ng/ml) was 2.23%, the “percent of CD4+ that express FoxP3” value (naïve CD4+CD25− cells; RA 100 ng/ml, TGF-β 0.5 ng/ml) was 10.01% and the “percent of CD4+ that express FoxP3” value (naïve CD4+CD25− cells; RA 100 ng/ml, TGF-β 5 ng/ml) was 50.71%. The “percent of CD4+ that express FoxP3” value (naïve CD4+CD25− cells; RA 100 ng/ml, TGF-β 20 ng/ml) was 43.43% and the “toxicity upon local administration” value [2] was “induce hypervitaminosis-A”.
